# Measurements from patent US10588316B2 (priority 2015, dated 2020).
# Like-named read-outs stand apart in the source and are kept apart here.
# Key:
# [1] = test system: Fusarium graminearum; assay: microbe, parasite or virus in culture; format: cell-based; settings: Fusarium graminearum, read-out: Median Effective Concentration (EC50) for Growth Inhibition
# [2] = test system: Fusarium asiaticum; assay: microbe, parasite or virus in culture; format: cell-based; settings: Fusarium asiaticum, read-out: Median Effective Concentration (EC50) for Growth Inhibition
# [3] = test system: wheat scab; format: in vivo; settings: Carbendazim 40 g a.i. per mu, control agent
# [4] = test system: wheat scab; format: in vivo; settings: Carbendazim 40 g a.i. per mu
# [5] = test system: leaf blight; set-up: species or system wheat; settings: in vivo
# [6] = test system: rust; set-up: species or system wheat; settings: in vivo
# [7] = set-up: species or system wheat; settings: in vivo
# [8] = test system: wheat scab; format: in vivo; settings: Carbendazim 50 g a.i.
# [9] = test system: wheat scab; format: in vivo; settings: 80 g of 50% of Carbendazim Wettable Powder
smiles,measurement,setting,value
"COC(=O)Nc1nc2ccccc2[nH]1 [Carbendazim, carbendazim]",EC50,[1],0.45 µg/mL
same,EC50,[2],0.45 µg/mL
same,Disease Index Prevention Effect % Actual Prevention Effect,[3],67.5%
same,Disease Index Prevention Effect % Head Blight,[4],38.60%
same,Disease Index Prevention Effect % Leaf Blight,[5],48.50%
same,Disease Index Prevention Effect % Rust,[6],61.20%
same,Thousand Kernel Weight,[7],41.60 g
same,Disease Index Prevention Effect % Head Blight,[8],49.04%
same,Disease Index Prevention Effect % Head Blight,[9],64.6%
